# Experiments:
# Beta-secretase 1 [1] = molecular target: T1, Beta-secretase 1 (Homo sapiens, UniProt P56817); assay: Inhibition of BACE-1 (unknown origin) relative to control; conditions: concentration not given here
# Acetylcholinesterase [2] = molecular target: T2, Acetylcholinesterase (Homo sapiens, UniProt P22303); assay: Inhibition of AChE (unknown origin) relative to control; conditions: concentration not given here
# [3] = molecular target: T3, Amyloid-beta precursor protein (Homo sapiens, UniProt P05067); assay: Inhibition of self-induced amyloid beta (unknown origin) aggregation at 3 uM relative to control
# T3 sequence (P05067 whole entry): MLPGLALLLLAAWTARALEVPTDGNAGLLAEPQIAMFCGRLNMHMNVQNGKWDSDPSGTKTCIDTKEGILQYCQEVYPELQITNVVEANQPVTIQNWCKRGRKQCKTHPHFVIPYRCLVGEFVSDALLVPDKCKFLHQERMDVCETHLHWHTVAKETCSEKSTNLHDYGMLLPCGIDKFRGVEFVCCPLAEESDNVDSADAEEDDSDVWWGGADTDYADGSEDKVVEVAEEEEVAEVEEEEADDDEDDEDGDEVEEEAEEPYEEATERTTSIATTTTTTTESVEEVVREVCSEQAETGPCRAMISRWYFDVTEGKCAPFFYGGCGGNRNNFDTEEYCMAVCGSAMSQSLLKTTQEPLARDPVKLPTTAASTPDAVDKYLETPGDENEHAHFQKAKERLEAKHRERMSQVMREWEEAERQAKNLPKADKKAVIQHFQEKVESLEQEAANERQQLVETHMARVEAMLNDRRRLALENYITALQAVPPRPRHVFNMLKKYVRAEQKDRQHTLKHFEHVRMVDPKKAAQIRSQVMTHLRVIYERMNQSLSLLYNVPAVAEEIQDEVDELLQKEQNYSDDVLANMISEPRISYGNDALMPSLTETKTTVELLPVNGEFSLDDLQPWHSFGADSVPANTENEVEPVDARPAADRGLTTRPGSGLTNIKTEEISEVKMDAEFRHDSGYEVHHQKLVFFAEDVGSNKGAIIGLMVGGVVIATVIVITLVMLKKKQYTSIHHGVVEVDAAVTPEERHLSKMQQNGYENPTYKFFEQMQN
# HT-22 = assay: Neuroprotective activity against glutamate-induced cell death in mouse HT-22 cells at 10 uM relative to control; format: functional
# Cholinesterase [4] = molecular target: T4, Cholinesterase (Homo sapiens, UniProt P06276); assay: Inhibition of BuChE (unknown origin) relative to control; conditions: concentration not given here
# T4 sequence (P06276 whole entry): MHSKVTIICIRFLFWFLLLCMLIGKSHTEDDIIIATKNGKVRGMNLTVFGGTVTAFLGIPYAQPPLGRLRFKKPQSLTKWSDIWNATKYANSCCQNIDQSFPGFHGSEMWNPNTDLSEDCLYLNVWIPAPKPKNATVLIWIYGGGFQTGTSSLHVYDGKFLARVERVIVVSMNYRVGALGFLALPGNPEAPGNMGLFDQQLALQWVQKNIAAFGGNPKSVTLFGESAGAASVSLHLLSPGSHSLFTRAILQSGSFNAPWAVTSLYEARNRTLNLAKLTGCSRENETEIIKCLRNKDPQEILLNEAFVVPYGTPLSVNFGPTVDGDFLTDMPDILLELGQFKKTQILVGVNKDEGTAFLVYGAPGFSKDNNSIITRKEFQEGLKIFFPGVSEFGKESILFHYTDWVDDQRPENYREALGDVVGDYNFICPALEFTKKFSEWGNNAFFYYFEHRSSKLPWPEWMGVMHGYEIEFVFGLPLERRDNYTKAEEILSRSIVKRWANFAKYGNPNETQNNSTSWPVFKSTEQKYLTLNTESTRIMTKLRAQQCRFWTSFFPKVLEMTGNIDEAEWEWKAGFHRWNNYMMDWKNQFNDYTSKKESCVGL
# Cholinesterase [5] = molecular target: T4, Cholinesterase; assay: Inhibition of BuChE (unknown origin)
# Acetylcholinesterase [6] = molecular target: T2, Acetylcholinesterase; assay: Inhibition of AChE (unknown origin)
# [7] = molecular target: T3, Amyloid-beta precursor protein; assay: Inhibition of amyloid beta (1 to 42) (unknown origin) fibril formation incubated for 1 hr by thioflavin-T fluorescence assay
# SH-SY5Y [8] = assay: Neuroprotective activity against amyloid beta treated human SH-SY5Y cells at 1 nM relative to control; format: functional
# Acetylcholinesterase [9] = molecular target: T2, Acetylcholinesterase; assay: Inhibition of AChE (unknown origin) at 100 uM relative to control
# Beta-secretase 1 [10] = molecular target: T1, Beta-secretase 1; assay: Inhibition of human BACE-1 at 100 uM relative to control
# [11] = molecular target: T3, Amyloid-beta precursor protein; assay: Inhibition of self-induced amyloid beta (unknown origin) aggregation at 100 uM relative to control
# Beta-secretase 1 [12] = molecular target: T1, Beta-secretase 1; assay: Inhibition of human BACE-1
# [13] = molecular target: T3, Amyloid-beta precursor protein; assay: Inhibition of amyloid beta (unknown origin) aggregation
# [14] = molecular target: T3, Amyloid-beta precursor protein; assay: Inhibition of self-induced amyloid beta (1 to 42) (unknown origin) aggregation at 10 uM relative to control
# [15] = molecular target: T3, Amyloid-beta precursor protein; assay: Inhibition of self-induced amyloid beta (unknown origin) aggregation relative to control; conditions: concentration not given here
# Cholinesterase [16] = molecular target: T4, Cholinesterase; assay: Inhibition of human serum BuChE preincubated for 20 mins followed by substrate addition by Ellman's method; format: cell-free
# Acetylcholinesterase [17] = molecular target: T2, Acetylcholinesterase; assay: Inhibition of human recombinant AChE preincubated for 20 mins followed by substrate addition by Ellman's method
# Mus musculus [18] = assay: Anti-alzheimer activity in APP/PS1 mouse model assessed as reduction in cerebral levels of insoluble amyloid beta (1 to 40) at 40 mg/kg, po administered via oral gavage once a day for 12 weeks relative to control; format: functional; design: scale not given: the % may be the effect or the level left
# Acetylcholinesterase [19] = molecular target: T2, Acetylcholinesterase; assay: Inhibition of AChE (unknown origin) assessed as inhibition constant
# [20] = molecular target: T5, Amine oxidase [flavin-containing] B (Homo sapiens, UniProt P27338); assay: Inhibition of MAO-B (unknown origin)
# T5 sequence (P27338 whole entry): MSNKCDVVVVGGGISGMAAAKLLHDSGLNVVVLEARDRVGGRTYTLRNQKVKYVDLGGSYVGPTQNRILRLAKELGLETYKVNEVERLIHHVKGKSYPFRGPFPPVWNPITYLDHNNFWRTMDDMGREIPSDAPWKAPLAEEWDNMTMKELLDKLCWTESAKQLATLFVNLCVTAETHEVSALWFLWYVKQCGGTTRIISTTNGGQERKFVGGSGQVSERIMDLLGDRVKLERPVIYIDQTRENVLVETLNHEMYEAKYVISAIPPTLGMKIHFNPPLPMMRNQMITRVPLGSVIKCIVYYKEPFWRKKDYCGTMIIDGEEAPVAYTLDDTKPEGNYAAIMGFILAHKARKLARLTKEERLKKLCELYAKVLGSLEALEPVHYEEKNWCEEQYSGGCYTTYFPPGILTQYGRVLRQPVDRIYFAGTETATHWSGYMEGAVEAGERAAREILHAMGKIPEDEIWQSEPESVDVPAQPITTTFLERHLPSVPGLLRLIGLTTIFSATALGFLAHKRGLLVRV
# [21] = Antioxidant activity of compound assessed as trolox equivalent preincubated for 15 mins followed by AAPH addition and measured for 90 mins by ORAC-FL assay; format: functional; conditions: time 105.0 min
# Mus musculus [22] = assay: Antialzheimer activity in Tg2576 mouse model assessed as decrease in soluble amyloid beta level in brain homogenate at 20 mg/kg, ip administered daily for 30 days relative to control; format: functional; design: scale not given: the % may be the effect or the level left; conditions: time 30 day
# [23] = molecular target: T3, Amyloid-beta precursor protein; assay: Inhibition of self-induced amyloid beta (unknown origin) aggregation
# [24] = molecular target: Glycogen synthase kinase-3 beta (Homo sapiens) (UniProt P49841); assay: Non-competitive inhibition of GSK3-beta (unknown origin) assessed as inhibition of tau hyperphosphorylation at 100 ug/ml incubated for 1 hr in presence of ATP by ADP-Glo kinase assay relative to control; conditions: dose 100.0 µg/ml
# Chain of Glycogen synthase kinase-3 beta (Homo sapiens) (P49841 whole entry, looked up): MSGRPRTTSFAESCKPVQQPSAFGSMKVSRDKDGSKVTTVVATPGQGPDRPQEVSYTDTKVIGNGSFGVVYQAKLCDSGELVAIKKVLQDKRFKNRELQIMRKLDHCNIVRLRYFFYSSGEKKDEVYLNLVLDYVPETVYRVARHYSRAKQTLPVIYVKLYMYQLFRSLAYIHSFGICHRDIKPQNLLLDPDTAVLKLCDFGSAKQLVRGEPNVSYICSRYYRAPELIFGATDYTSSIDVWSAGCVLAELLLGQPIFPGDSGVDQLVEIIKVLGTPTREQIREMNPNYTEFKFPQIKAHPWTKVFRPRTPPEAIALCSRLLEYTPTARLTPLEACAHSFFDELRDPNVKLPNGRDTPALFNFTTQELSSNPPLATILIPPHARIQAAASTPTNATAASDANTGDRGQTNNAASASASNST
# [25] = molecular target: T5, Amine oxidase [flavin-containing] B; assay: Inhibition of human MAO-B
# HepG2 = assay: Cytotoxicity against human HepG2 cells assessed as reduction in cell viability at 10 uM relative to control; format: functional
# SH-SY5Y [26] = assay: Neuroprotective activity against human SH-SY5Y cells assessed as increase in cell viability at 25 uM relative to control; format: functional
# Beta-secretase 1 [27] = molecular target: T1, Beta-secretase 1; assay: Inhibition of human BACE-1 at 500 uM relative to control
# [28] = molecular target: T3, Amyloid-beta precursor protein; assay: Inhibition of self-induced amyloid beta (unknown origin) aggregation at 20 uM relative to control
# T2 sequence (P22303 whole entry): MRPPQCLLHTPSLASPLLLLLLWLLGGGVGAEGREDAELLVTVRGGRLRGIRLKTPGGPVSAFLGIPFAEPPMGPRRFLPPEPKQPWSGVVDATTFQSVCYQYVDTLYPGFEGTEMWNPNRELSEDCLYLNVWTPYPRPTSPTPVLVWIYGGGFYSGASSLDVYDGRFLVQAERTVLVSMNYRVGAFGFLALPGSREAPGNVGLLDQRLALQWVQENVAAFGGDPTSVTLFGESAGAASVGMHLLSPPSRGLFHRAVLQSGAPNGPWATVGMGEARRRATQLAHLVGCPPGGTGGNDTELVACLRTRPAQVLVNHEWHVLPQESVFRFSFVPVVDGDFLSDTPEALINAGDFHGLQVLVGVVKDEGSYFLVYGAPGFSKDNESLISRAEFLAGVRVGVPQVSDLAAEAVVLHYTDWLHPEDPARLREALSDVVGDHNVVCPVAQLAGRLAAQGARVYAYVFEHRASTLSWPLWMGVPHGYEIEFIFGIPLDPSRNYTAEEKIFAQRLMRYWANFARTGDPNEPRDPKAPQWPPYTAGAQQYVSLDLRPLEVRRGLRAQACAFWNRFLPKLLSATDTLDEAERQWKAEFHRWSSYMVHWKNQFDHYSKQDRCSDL
# T1 sequence (P56817 whole entry): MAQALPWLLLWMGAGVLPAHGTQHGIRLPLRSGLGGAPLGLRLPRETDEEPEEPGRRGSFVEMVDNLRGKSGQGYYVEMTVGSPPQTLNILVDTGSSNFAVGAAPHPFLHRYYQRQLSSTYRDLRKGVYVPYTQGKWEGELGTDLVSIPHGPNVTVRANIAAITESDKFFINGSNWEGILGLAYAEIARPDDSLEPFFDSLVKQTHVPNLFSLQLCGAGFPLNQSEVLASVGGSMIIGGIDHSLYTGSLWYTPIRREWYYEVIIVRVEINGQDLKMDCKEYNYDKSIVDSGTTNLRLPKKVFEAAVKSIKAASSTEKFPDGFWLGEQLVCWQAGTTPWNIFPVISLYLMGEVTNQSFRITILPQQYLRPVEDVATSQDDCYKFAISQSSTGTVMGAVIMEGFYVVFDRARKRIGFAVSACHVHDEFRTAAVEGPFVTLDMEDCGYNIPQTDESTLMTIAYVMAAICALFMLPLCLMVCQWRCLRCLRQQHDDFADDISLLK
smiles,measurement,setting,value
COc1c(O)cc2oc3cc(O)c(CC=C(C)C)c(O)c3c(=O)c2c1CCC(C)(C)O [GARCINONE D],inhibition,Beta-secretase 1 [1],62.7%
same,inhibition,Acetylcholinesterase [2],12.9%
same,inhibition,[3],34.9%
same,Activity,HT-22,45.4%
same,inhibition,Cholinesterase [4],15%
COc1ccc(-c2cc(=O)c3ccc(OCCN4CCN(CCO)CC4)cc3o2)cc1,IC50,Cholinesterase [5],21.6 nM
same,IC50,Acetylcholinesterase [6],7.56 nM
CN(C)Cc1c(O)c(O)c(O)c2c(=O)cc(-c3ccccc3)oc12,IC50,Acetylcholinesterase [6],82000 nM
COc1cc(O)c2c(=O)c(O)c(-c3ccc(O)c(O)c3)oc2c1 [RHAMNETIN],IC50,[7],2.3 µM
O=c1c(O)c(-c2ccc(O)c(O)c2)oc2cc(O)ccc12 [FISETIN],IC50,[7],12.5 µM
CCN(CC)CCCCOc1cc(O)c2c(=O)c(-c3ccc(O)cc3)coc2c1,IC50,Cholinesterase [5],> 100000 nM
same,Activity,SH-SY5Y [8],75.7%
same,IC50,Acetylcholinesterase [6],100 nM
CC(C)=CCc1cc2c(cc1O)O[C@@H](c1ccc(O)cc1)CC2=O,inhibition,Acetylcholinesterase [9],34%
same,inhibition,Beta-secretase 1 [10],17%
same,inhibition,[11],19%
CCC(=O)CNC(=O)Nc1nc2ccc(-c3oc4c(OC)c(O)c(O)c(OC)c4c(=O)c3O)cc2s1,IC50,Cholinesterase [5],0.32 nM
same,IC50,Beta-secretase 1 [12],2100 nM
same,IC50,Acetylcholinesterase [6],100 nM
Oc1cc(O)c2c(c1)O[C@H](c1ccc(O)c(O)c1)[C@H](O)C2 [(-)-EPICATECHIN],IC50,[13],5.3 µM
O=c1c(O)c(-c2cc(O)c(O)c(O)c2)oc2cc(O)cc(O)c12,inhibition,[14],65.2%
CNC(=O)Oc1cccc(CN(C)CCCCCCCOc2cccc(-c3cc(=O)c4ccccc4o3)c2)c1,inhibition,[15],17.2%
same,IC50,Cholinesterase [16],63.7 nM
same,IC50,Acetylcholinesterase [17],0.52 nM
O=c1cc(-c2ccc(O)cc2)oc2cc(O)cc(O)c12 [APIGENIN],Activity,Mus musculus [18],20%
COc1cc(O)c2c(=O)c3cccc(O)c3oc2c1,Ki,Acetylcholinesterase [19],53 µM
same,IC50,[20],33 µM
CCN(CC)C(=O)Oc1ccc(-c2cc(=O)c3c(O)c(O)c(O)cc3o2)cc1,IC50,Cholinesterase [5],22100 nM
same,Activity,[21],10.3
same,IC50,Acetylcholinesterase [6],1200 nM
O=c1cc(-c2ccc(O)c(O)c2)oc2cc(O)cc(O)c12 [LUTEOLIN],Activity,Mus musculus [22],49%
COc1ccc(-c2cc(=O)c3ccc(OCCN4CCCC4)cc3o2)cc1,IC50,Cholinesterase [5],69.5 nM
same,IC50,Acetylcholinesterase [6],105 nM
Cc1ccc(NCC[C@@H]2CCCN3CCCC[C@H]23)c2c(=O)c3ccccc3oc12,IC50,Cholinesterase [5],370 nM
same,IC50,[23],13 µM
same,IC50,Acetylcholinesterase [6],140 nM
COc1cc(-c2cc(=O)c3c(O)c([C@@H]4O[C@H](CO)[C@@H](O)[C@H](O)[C@H]4O)c(O)cc3o2)ccc1O,inhibition,[24],41.5%
COc1ccc(-c2cc(=O)c3ccc(OCCN4CCC(C)CC4)cc3o2)cc1,IC50,Cholinesterase [5],24.7 nM
same,IC50,Acetylcholinesterase [6],6.33 nM
COc1ccc(/C=C2\COc3cc(OCCCN4CCCCC4)ccc3C2=O)cc1,IC50,Cholinesterase [5],9210 nM
same,IC50,[25],3.44 µM
same,IC50,Acetylcholinesterase [6],3940 nM
CCN(CC)CCOc1ccc2c(=O)cc(-c3ccc(OC)cc3)oc2c1,IC50,Cholinesterase [5],49.1 nM
same,IC50,Acetylcholinesterase [6],27.1 nM
COc1cc2c(cc1CC=C(C)C)C(=O)C[C@@H](c1ccc(O)cc1)O2,inhibition,Acetylcholinesterase [9],81%
same,inhibition,Beta-secretase 1 [10],21%
same,inhibition,[11],57%
O=c1cc(-c2ccc(O)c(O)c2)oc2cc(O)c([C@@H]3O[C@H](CO)[C@@H](O)[C@H](O)[C@H]3O)c(O)c12,inhibition,[24],48.4%
Cc1ccc(NCC[C@@H]2CCCN3CCCC[C@H]23)c2c(=O)c3ccccc3sc12,IC50,Cholinesterase [5],460 nM
same,IC50,[23],0.84 µM
same,IC50,Acetylcholinesterase [6],5200 nM
COc1ccc(/C=C2\COc3cc(OCCN4CCCCC4)ccc3C2=O)cc1,IC50,[25],25 µM
CN(C)CCNC(=O)COc1cc(O)c2c(=O)c(-c3ccc(O)cc3)coc2c1.Cl,Activity,HepG2,1.53%
same,IC50,Acetylcholinesterase [6],2750 nM
same,inhibition,Cholinesterase [4],26%
O=C(O[C@H]1Cc2c(O)cc(O)cc2O[C@H]1c1ccc(O)c(O)c1)c1cc(O)c(O)c(O)c1,IC50,[13],3 µM
same,IC50,Beta-secretase 1 [12],2400 nM
COc1cc2oc3cccc(O)c3c(=O)c2c(O)c1CN(C)C,IC50,Acetylcholinesterase [6],100000 nM
COc1cc(-c2oc3cc(O)cc(O)c3c(=O)c2O)ccc1O [ISORHAMNETIN],Activity,SH-SY5Y [26],64%
O=c1c(O)c(-c2ccc(O)c(O)c2)oc2cc(O)cc(O)c12 [QUERCETIN],IC50,[7],2.4 µM
COc1ccc(-c2cc(=O)c3ccc(OCCN4CCOCC4)cc3o2)cc1,IC50,Cholinesterase [5],54.3 nM
same,IC50,Acetylcholinesterase [6],11 nM
COc1ccc(/C=C2\COc3cc(OCCCCCN4CCCCC4)ccc3C2=O)cc1,IC50,[25],0.65 µM
O=C(O[C@@H]1Cc2c(O)cc(O)cc2O[C@@H]1c1cc(O)c(O)c(O)c1)c1cc(O)c(O)c(O)c1 [EPIGALOCATECHIN GALLATE],IC50,[13],0.18 µM
C[C@@H]1O[C@@H](OC[C@H]2O[C@@H](Oc3cc(O)c4c(c3)O[C@H](c3ccc(O)cc3)CC4=O)[C@H](O)[C@@H](O)[C@@H]2O)[C@H](O)[C@H](O)[C@H]1O,inhibition,Beta-secretase 1 [27],79.3%
same,inhibition,[28],53%
O=c1c(O)c(-c2ccc(O)cc2O)oc2cc(O)cc(O)c12 [MORIN],IC50,[7],7.4 µM

# Source: ChEMBL document CHEMBL5252548, “A review on flavonoid-based scaffolds as multi-target-directed ligands (MTDLs) for Alzheimer's disease” (Eur J Med Chem, 2018)
